Key:
primary VS cells [1] = experiment: BrdU proliferation assay in primary VS cultures; format: cell-based, human; settings: for proliferation, of the NT cells / proliferation, of the non-treated cells: 48 hours
Method: Proliferation rate of 12 VS cultures was assessed and correlated with the tumor volume in the latest gadolinium enhanced T1-weighted MRI scan prior to surgical resection, and with tumor growth in vivo, measured as changes in the tumor's volume over time calculated from serial MRI scans. Tumor growth was standardized by dividing the growth rate by the initial tumor volume. Separate analyses were performed for solid tumors, which generally account for approximately 96% of VSs (Charabi et al., 1994), versus all studied tumors, which included 4 out of 13 total tumors with a visible cystic component, because cystic components could misrepresent true tumor volume (Charabi et al., 1994). To determine the level of cell proliferation in the cultures, Bromodeoxyuridine (BrdU) was added to the cells at a concentration of 10 μg/ml 20 hours before the cells were fixed. The cells were kept in the dark after the addition of BrdU Immunofluorescence protocol was followed as described under ‘Immunofluorescence,’ and cell and nuclear membranes were permeablized by incubation in 1% Triton-X for 10 minutes and by incubation in 2N Hydrochloric acid for 20 minutes, respectively, after fixation. Primary antibody against BrdU (AbD Serotec, NC, 1:200) and anti-rat IgG (Life Technologies, NY, 1:1000) were used. BrdU- and Hoechst-stained nuclei were counted in 3-5 fields and the ratio of BrdU positive to Hoechst positive nuclei was used to determine the proliferation rate in vitro. […]
(§1) Cultured human primary VS cells, primary SCs and HEI-193 cells were treated with NF-κB inhibitors BAY11-7082 (BAY11) or curcumin for 48 hours (Santa Cruz Biotechnology). BAY11 or curcumin, diluted in 100% DMSO, were mixed to the accurate concentrations in warmed media and applied to the cultures (with DMSO concentration in media being 1% maximum), alongside a no-treatment control receiving media alone with appropriate corresponding DMSO levels. Experiments were performed in media fortified with antibiotics and serum (same formulation as described in Example 1 for culturing cells).
(§2) After 48 hours of treatment, primary VS and Schwann cultures were fixed for BrdU staining, to visualize proliferation, or TUNEL staining, to visualize cell death. The same methodology as described in Example 1 was utilized. Cleaved caspase 3 staining, another apoptosis marker to reinforce findings using TUNEL, was conducted using an antibody against cleaved caspase 3 following the ‘immunofluorescence’ protocol outlined in Example 1.
(§3) The cultures were incubated with the drugs for 48 hours. To label proliferating cells, BrdU was added 20 hours before fixation. pH was measured in the media after drug addition to ensure no significant deviations.
(§4) After 48 hours of treatment with salicylates, primary VS and SC cultures were fixed for BrdU staining, to visualize proliferation, or TUNEL staining, to visualize cell death. The same methodology as described in Example 1 was utilized.
To understand cross-talk between HGF and VEGF-A pathway, cultured VS cells were incubated with Life Technologies silencer select siRNAs targeting VEGFA (s461) or MET (s8700). To understand whether HGF signaling contributed to VS proliferation, cultured VS cells were treated with MET inhibitor SU11274 (Sigma-Aldrich, MO, #S9820). Seventy-two hours after siRNA treatment or 12 hours after treatment with SU11274 (2 μM), cells were incubated with 10 μg/mL BrdU (Life Technologies, NY, # B23151) for 20 hours before fixation.

primary VS cells [2] = experiment: TUNEL cell death assay in primary VS cultures; format: cell-based, human; settings: 48 hours
Method: Rate of apoptosis in 6 VS cultures was assessed and correlated with tumor growth in vivo and tumor volume. […] Apoptosis was measured using terminal deoxynucleotidyl transferase dUTP nick end labeling (TUNEL, Roche Applied Sciences, NY) following manufacturer's instructions. Briefly, immunofluorescence protocol was followed as described under ‘Immunofluorescence,’ until fixations, then the cells were washed with PBS thrice and incubated in 1% Triton-X for 10 minutes on shaker. The cells were washed with PBS once and incubated in TUNEL mix for 1 hour at 37° C., then for 30 minutes at RT on shaker. The cells were then incubated in rhodamine phalloidin (Life Technologies, NY, 1:40) and Hoechst stain for 20 minutes, washed with PBS thrice and mounted onto slides for imaging. TUNEL and Hoechst stained nuclei were counted in >3 fields and the ratio of TUNEL positive to Hoechst positive nuclei was used to determine apoptosis rate in vitro. A positive control of 10 minutes-DNAse (Roche Applied Sciences, NY) treatment prior to TUNEL labeling was utilized.
(§5) For siRNA treatment, cultured primary VS cells or HEI-193 cells were placed in antibiotic and serum free media overnight. The next day, the cells were incubated with Life Technologies siRNAs targeting NF-κB genes RELA and NF-κB1, with control cells being treated with vehicle only (Lipofectamine RNAiMax), for 5 days. Some cultures were also incubated with a fluorescent random Oligo (Life Technologies) along with vehicle to assess transfection efficiency. siRNA experiments were performed in antibiotic and serum free media.
BAY11 or curcumin, diluted in 100% DMSO, were mixed to the accurate concentrations in warmed media and applied to the cultures (with DMSO concentration in media being 1% maximum), alongside a no-treatment control receiving media alone with appropriate corresponding DMSO levels.
After 48 hours of treatment, primary VS and Schwann cultures were fixed for BrdU staining, to visualize proliferation, or TUNEL staining, to visualize cell death.
After 48 hours of treatment with salicylates, primary VS and SC cultures were fixed for BrdU staining, to visualize proliferation, or TUNEL staining, to visualize cell death.

primary SCs [3] = experiment: BrdU proliferation assay in primary Schwann cell cultures; format: cell-based, human; settings: 48 hours
Method: (§6) Proliferation rate of 12 VS cultures was assessed and correlated with the tumor volume in the latest gadolinium enhanced T1-weighted MRI scan prior to surgical resection, and with tumor growth in vivo, measured as changes in the tumor's volume over time calculated from serial MRI scans. Tumor growth was standardized by dividing the growth rate by the initial tumor volume. Separate analyses were performed for solid tumors, which generally account for approximately 96% of VSs (Charabi et al., 1994), versus all studied tumors, which included 4 out of 13 total tumors with a visible cystic component, because cystic components could misrepresent true tumor volume (Charabi et al., 1994). To determine the level of cell proliferation in the cultures, Bromodeoxyuridine (BrdU) was added to the cells at a concentration of 10 μg/ml 20 hours before the cells were fixed. The cells were kept in the dark after the addition of BrdU Immunofluorescence protocol was followed as described under ‘Immunofluorescence,’ and cell and nuclear membranes were permeablized by incubation in 1% Triton-X for 10 minutes and by incubation in 2N Hydrochloric acid for 20 minutes, respectively, after fixation. Primary antibody against BrdU (AbD Serotec, NC, 1:200) and anti-rat IgG (Life Technologies, NY, 1:1000) were used. BrdU- and Hoechst-stained nuclei were counted in 3-5 fields and the ratio of BrdU positive to Hoechst positive nuclei was used to determine the proliferation rate in vitro.
as §1, §2, §3, §4

primary SCs [4] = experiment: TUNEL cell death assay in primary Schwann cell cultures; format: cell-based, human; settings: 48 hours
Method: (§7) Rate of apoptosis in 6 VS cultures was assessed and correlated with tumor growth in vivo and tumor volume. Two out of the six VS had cystic components. Apoptosis was measured using terminal deoxynucleotidyl transferase dUTP nick end labeling (TUNEL, Roche Applied Sciences, NY) following manufacturer's instructions. Briefly, immunofluorescence protocol was followed as described under ‘Immunofluorescence,’ until fixations, then the cells were washed with PBS thrice and incubated in 1% Triton-X for 10 minutes on shaker. The cells were washed with PBS once and incubated in TUNEL mix for 1 hour at 37° C., then for 30 minutes at RT on shaker. The cells were then incubated in rhodamine phalloidin (Life Technologies, NY, 1:40) and Hoechst stain for 20 minutes, washed with PBS thrice and mounted onto slides for imaging. TUNEL and Hoechst stained nuclei were counted in >3 fields and the ratio of TUNEL positive to Hoechst positive nuclei was used to determine apoptosis rate in vitro. A positive control of 10 minutes-DNAse (Roche Applied Sciences, NY) treatment prior to TUNEL labeling was utilized.
as §1, §2

HEI-193 NF2 VS cell line [5] = experiment: BrdU proliferation assay in HEI-193 cells; format: cell-based, human; settings: for normalized proliferation rate: 48 hours
Method: as §6
(§8) The same methodology as described in Example 1 was utilized for primary VS and SC cultures. Cultures were treated with NF-κB inhibitors approximately after 2 weeks of culturing. HEI-193 cell line was a gift from Dr. Giovannini at the House Ear Institute (Hung et al., 2002a).
as §5, §1, §2

HEI-193 NF2 VS cell line [6] = experiment: TUNEL cell death assay in HEI-193 cells; format: cell-based, human; settings: 48 hours
Method: as §7, §8, §5, §1, §2

[7] = system: cochlear explant cultures (hair cells and neurites); experiment: Murine cochlear explant culture, hair cell, neurite and fiber damage counts; format: cell-based, CBA/CaJ mice; settings: 100 ng/mL FGF2 pre-application plus 1 mM gentamicin, 48 hours total
From the text: To develop an animal model to study hearing loss due to VS, cochlear explant cultures were established from postnatal CBA/CaJ mice aged P3-P5 (Jackson Laboratory, ME). Briefly, after decapitating the mouse, temporal bones were dissected from the skull in Hank's Balanced Salt Solution (Life Technologies, NY). The otic capsule encasing the cochlea was dissected out from each temporal bone. The otic capsule was carefully stripped away and the spiral ligament was peeled away from the entire cochlea, starting from the base. The basal turn of cochlea was then isolated using the dissecting knife (Fine Science Tools, CA), discarding the apical turn hook region. The tectorial membrane and the Reissner's membrane were removed, leaving the organ of Corti intact with the spiral ganglion neuron region. This explant was cultured onto a 10 mm glass coverslip coated with CellTak (BD Biosciences, CA, #354241) in a 35 mm culture dish with 4 wells. Cells were cultured in 98% DMEM, 1% ampicillin and 1% N2 supplement.
To assess FGF2's otoprotective effect, cochlear explant cultures were treated with recombinant human FGF2±gentamicin. After culturing the explants overnight, media fortified with FGF2 (100 ng/mL) was applied. Twenty-four hours later media fortified with gentamicin (1 mM) and FGF2 (100 ng/mL) was applied. […] Cochlear explants were fixed after an additional 24 hours of treatment, with total time being 48 hours.
After treatment, the explants were fixed and stained with antibodies against myosin 7A (Myo7A, Proteus Biosciences, CA) and β-tubulin (Tuj1, Covance, MA) to identify hair cells (HCs) and neurons, respectively. The same immunofluorescence protocol as described in Example 1 was used, with the exceptions of omission of […] HCl incubation, usage of 5% NHS with 1% Triton-X for blocking solution and 1% NHS with 0.4% Triton-X solution for primary antibody incubation at room temperature (RT). Secondary antibodies (Alexa Flour 555 anti-mouse and Alexa Four 488 anti-rabbit) were purchased from Life Technologies. Cochlear explants were imaged using a Leica TCS SP5 Confocal microscope. Zoomed-in pictures for the region of organ of Corti, including neurites, were merged in a z-stack to obtain a z-axis projection image in the Leica software. The number of hair cells (HCs) and neurites were manually counted per 100 μm length along the cochlea, with 1-2 samplings per specimen.
The same general methodology for murine cochlear explant cultures as described in Example 5 was utilized. Cochlear explant cultures were established from P2-P3 mice. Importantly, instead of only culturing the basal turn, the apical turn was also isolated, providing two pieces per cochlea with a greater frequency range. After approximately 12 hours, the cochlear explant cultures were treated for 48 hours with tumor secretions diluted to half their concentration. The formulation was 46.5% tumor-conditioned DMEM, 46.5% plain DMEM, 5% FBS, 1% ampicillin and 1% N2 supplement. Cochlear explants were treated with control media in parallel, being 46.5% DMEM incubated without tumor, 46.5% plain DMEM, 5% FBS, 1% ampicillin and 1% N2 supplement. All reagents were purchased from Life Technologies, NY. Osmolality in the solutions was measured in samples using a vapor-pressure osmometer (standardized with 290 mOsm/kg of 0.1567M sodium chloride solution) before applying them onto cochlear explants. Extra formulation for each VS secretion was made to be tested on Milliplex arrays and ELISA. Milliplex array, containing FGF2, VEGF-A and HGF beads (Millipore) and human TNFα ELISA (R&D Systems) were conducted as directed by the manufacturer on VS secretions prior to being applied onto the cochlear explant cultures.
Cochlear explants were fixed 48 hours after treatment and the same methodology for VS secretion application as described in Example 5 was utilized. […]

Nc1ccc(O)c(C(=O)O)c1 [5-ASA, 5-aminosalicylic acid]
proliferation, of the NT cells (primary VS cells [1]; 5 mM): 55%
proliferation, of the NT cells (primary VS cells [1]; 10 mM): 54.8±16.5%
cell death rate (primary VS cells [2]; 5 mM): 5.6±3.2%
proliferation, of the NT cells (primary SCs [3]; 5 mM): 107.8±22.4%
proliferation, of the NT cells (primary SCs [3]; 10 mM): 109.7±26.7%

Cc1ccc(S(=O)(=O)/C=C/C#N)cc1 [BAY11, BAY11-7082]
proliferation, of the non-treated cells (primary VS cells [1]; 1 μM): 54.7±22.8%
proliferation, of the non-treated cells (primary VS cells [1]; 5 μM): 14%
proliferation, of the non-treated cells (primary VS cells [1]; 5 μM, listed as BAY 11): 14.3±9.7%
effective therapeutic window to target VS cells (primary VS cells [1]; from primary VS and SC culture results combined): around 5 μM
cell death rate (primary VS cells [2]; 1 μM): 36±13%
cell death rate (primary VS cells [2]; 5 μM): 47±12%
normalized proliferation rate (primary SCs [3]; 1 μM): 165.2±125.1%
normalized proliferation rate (primary SCs [3]; 5 μM): 133.2±101.1%
normalized proliferation rate, of the NT cells (primary SCs [3]; 1 mM): 130.2±65.6%
apoptosis / cell death rate (primary SCs [4]; 1 μM): 1.0±0.7%
apoptosis / cell death rate (primary SCs [4]; 5 μM): 0.7±0.7%
normalized proliferation rate (HEI-193 NF2 VS cell line [5]; 10 μM): 65.6±24.6%
normalized proliferation rate (HEI-193 NF2 VS cell line [5]; 100 μM): 9.1±4.9%
normalized proliferation rate (HEI-193 NF2 VS cell line [5]): 4.3±3.3%
higher concentration needed to reduce proliferation and survival than in primary VS cells (HEI-193 NF2 VS cell line [5]; NF2 VS cell line versus primary VS cells): ~10 fold
cell death rate (HEI-193 NF2 VS cell line [6]; 1 μM): 1.3±0.5%
cell death rate (HEI-193 NF2 VS cell line [6]; 5 μM): 1.9±1.2%
cell death rate (HEI-193 NF2 VS cell line [6]; 10 μM): 1.1±1.1%
cell death rate (HEI-193 NF2 VS cell line [6]; 100 μM): 58.8±21.5%
cell death rate (HEI-193 NF2 VS cell line [6]): 55.3±16.9%

Cc1[nH]c(/C=C2\C(=O)Nc3ccc(S(=O)(=O)N(C)c4cccc(Cl)c4)cc32)c(C)c1C(=O)N1CCN(C)CC1 [SU11274]
proliferation, of VS cells treated with DMSO only (primary VS cells [1]; 2 μM, 12 hours then BrdU 20 hours): 22.4±11.7%

FGF2: recombinant human FGF2
number of neurites per 100 μm [7]: 13.7±5.5 per 100 μm
total number of HCs per 100 μm length [7]: 15.0±4.6 per 100 μm
